Reference: patent US9187472B2 (AbbVie Inc., priority 2012, dated 2015)

tested on: PC3 cells; assay: NAMPT Cell Proliferation Assay; assay type: cell-based; details: Homo sapiens, PC-3, 120 h, 5 days incubation, cell viability by Cell Titer Glo
Description: NAMPT Cell Proliferation Assay
PC3 cells were seeded in 96-well black plates (Corning #3904) at 500 cells/well in 90 μl of RPMI media containing 10% heat-inactivated FBS and incubated overnight at 37° C. and 5% CO2 to allow cells to attach to wells. The following day, test compounds were serially diluted in neat DMSO to 1000× final concentrations prior to dilution with RPMI media to 10× and 1% DMSO. Ten μL of the 10× compounds were then transferred to wells containing cells to produce a dose response of 10-fold dilutions from 10 μM to 1×10^−5 μM. Cells were incubated for 5 days at 37° C. and 5% CO2, then cell viability was measured using Cell Titer Glo reagent (Promega #G7571). Percent inhibition values were calculated and fitted to a sigmoidal dose response curves using Assay Explorer software to determine IC50s.

| SMILES | IC50 |
| --- | --- |
| O=C(NCc1ccc2ncnn2c1)c1ccc(C2CCN(S(=O)(=O)c3ccccc3)CC2)s1 [Example 860, 5-[1-(phenylsulfonyl)piperidin-4-yl]-N-([1,2,4]triazolo[1,5-a]pyridin-6-ylmethyl)thiophene-2-carboxamide] | 8.24 nM |
| CC1(Cn2cc(-c3ccc(C(=O)NCc4cn5ccnc5cn4)s3)cn2)CCOCC1 [Example 861, N-(imidazo[1,2-a]pyrazin-6-ylmethyl)-5-{1-[(4-methyltetrahydro-2H-pyran-4-yl)methyl]-1H-pyrazol-4-yl}thiophene-2-carboxamide] | 0.574 nM |
| CC(C)(C)OC(=O)N1CCC(c2ccc(NC(=O)Cc3ccc4nccn4c3)cc2)CC1 [Example 862, tert-butyl 4-{4-[(imidazo[1,2-a]pyridin-6-ylacetyl)amino]phenyl}piperidine-1-carboxylate] | 0.78 nM |
| O=C(Cc1ccc2nccn2c1)Nc1ccc(C2CCN(C(=O)c3ccccc3F)CC2)cc1 [Example 863, N-{4-[1-(2-fluorobenzoyl)piperidin-4-yl]phenyl}-2-(imidazo[1,2-a]pyridin-6-yl)acetamide] | 0.642 nM |
| O=C(NCc1cn2ccnc2cn1)c1ccc(C2CCN(S(=O)(=O)c3ccccc3)CC2)cc1 [Example 864, N-(imidazo[1,2-a]pyrazin-6-ylmethyl)-4-[1-(phenylsulfonyl)piperidin-4-yl]benzamide] | 67.2 nM |
| CC(C)C(=O)N1CCC(c2ccc(NC(=O)Cc3ccc4nccn4c3)cc2)CC1 [Example 865, 2-(imidazo[1,2-a]pyridin-6-yl)-N-{4-[1-(2-methylpropanoyl)piperidin-4-yl]phenyl}acetamide] | 0.861 nM |
| O=C(Cc1ccc2nccn2c1)Nc1ccc(C2CCN(C(=O)c3ccc(F)cc3F)CC2)cc1 [Example 866, N-{4-[1-(2,4-difluorobenzoyl)piperidin-4-yl]phenyl}-2-(imidazo[1,2-a]pyridin-6-yl)acetamide] | 0.525 nM |
| COc1ccccc1CC(=O)Nc1ccc(C(=O)NCc2ccn3ccnc3c2)cc1 [Example 867, N-(imidazo[1,2-a]pyridin-7-ylmethyl)-4-{[(2-methoxyphenyl)acetyl]amino}benzamide] | 68.7 nM |
| O=C(Cc1ccccc1)Nc1ccc(C(=O)NCc2ccn3ccnc3c2)cc1 [Example 868, N-(imidazo[1,2-a]pyridin-7-ylmethyl)-4-[(phenylacetyl)amino]benzamide] | 86.9 nM |
| O=C(NCc1ccn2ccnc2c1)c1ccc(NC(=O)c2ccccc2)cc1 [Example 869, 4-(benzoylamino)-N-(imidazo[1,2-a]pyridin-7-ylmethyl)benzamide] | 6870 nM |
| O=C(NCc1ccn2ccnc2c1)c1ccc(NC(=O)c2cc(F)ccc2F)cc1 [Example 870, 2,5-difluoro-N-{4-[(imidazo[1,2-a]pyridin-7-ylmethyl)carbamoyl]phenyl}benzamide] | 994 nM |
| O=C(NCc1ccn2ccnc2c1)c1ccc(NC(=O)c2cc(F)cc(F)c2)cc1 [Example 871, 3,5-difluoro-N-{4-[(imidazo[1,2-a]pyridin-7-ylmethyl)carbamoyl]phenyl}benzamide] | 7300 nM |
| O=C(NCc1ccn2ccnc2c1)c1ccc(NC(=O)c2ccc(F)c(F)c2)cc1 [Example 872, 3,4-difluoro-N-{4-[(imidazo[1,2-a]pyridin-7-ylmethyl)carbamoyl]phenyl}benzamide] | > 10000 nM |
| O=C(NCc1ccn2ccnc2c1)c1ccc(NC(=O)c2ccc(F)cc2F)cc1 [Example 873, 2,4-difluoro-N-{4-[(imidazo[1,2-a]pyridin-7-ylmethyl)carbamoyl]phenyl}benzamide] | 3870 nM |
| O=C(NCc1ccn2ccnc2c1)c1ccc(NC(=O)c2ccccc2F)cc1 [Example 874, 2-fluoro-N-{4-[(imidazo[1,2-a]pyridin-7-ylmethyl)carbamoyl]phenyl}benzamide] | 6650 nM |
| COc1cccc(C(=O)Nc2ccc(C(=O)NCc3ccn4ccnc4c3)cc2)c1 [Example 875, N-{4-[(imidazo[1,2-a]pyridin-7-ylmethyl)carbamoyl]phenyl}-3-methoxybenzamide] | 1140 nM |
| O=C(Cc1ccccc1F)Nc1ccc(C(=O)NCc2ccn3ccnc3c2)cc1 [Example 876, 4-{[(2-fluorophenyl)acetyl]amino}-N-(imidazo[1,2-a]pyridin-7-ylmethyl)benzamide] | 47.7 nM |
| CC(C)CC1CCCN1C(=O)c1ccc(C(=O)NCc2ccn3ccnc3c2)cc1 (stereo not drawn) [Example 877, N-(imidazo[1,2-a]pyridin-7-ylmethyl)-4-{[2-(2-methylpropyl)pyrrolidin-1-yl]carbonyl}benzamide] | > 10000 nM |
| COC[C@H]1CCCN1C(=O)c1ccc(C(=O)NCc2ccn3ccnc3c2)cc1 [Example 878, N-(imidazo[1,2-a]pyridin-7-ylmethyl)-4-{[(2R)-2-(methoxymethyl)pyrrolidin-1-yl]carbonyl}benzamide] | > 10000 nM |
| CC(C)(C(=O)N1CCC(c2ccc(C(=O)NCc3ccn4ccnc4c3)s2)CC1)N1CCNCC1 [Example 879, N-(imidazo[1,2-a]pyridin-7-ylmethyl)-5-{1-[2-methyl-2-(piperazin-1-yl)propanoyl]piperidin-4-yl}thiophene-2-carboxamide] | 63.3 nM |

| SMILES | IC50 |
| --- | --- |
| COc1ccccc1C(=O)Nc1ccc(C(=O)NCc2ccn3ccnc3c2)cc1 [Example 880, N-{4-[(imidazo[1,2-a]pyridin-7-ylmethyl)carbamoyl]phenyl}-2-methoxybenzamide] | 750 nM |
| O=C(NCc1ccn2ccnc2c1)c1ccc(S(=O)(=O)c2ccccc2)cc1 [Example 881, N-(imidazo[1,2-a]pyridin-7-ylmethyl)-4-(phenylsulfonyl)benzamide] | 8490 nM |
| O=C(NCc1ccc2ncnn2c1)c1ccc(S(=O)(=O)c2ccccc2)cc1 [Example 882, 4-(phenylsulfonyl)-N-([1,2,4]triazolo[1,5-a]pyridin-6-ylmethyl)benzamide] | > 10000 nM |
| CC(C)(C)Cn1cc(-c2ccc(C(=O)NCc3ccn4ccnc4c3)s2)cn1 [Example 883, 5-[1-(2,2-dimethylpropyl)-1H-pyrazol-4-yl]-N-(imidazo[1,2-a]pyridin-7-ylmethyl)thiophene-2-carboxamide] | 0.22 nM |
| O=C(NCc1ccn2ccnc2c1)c1ccc(-c2cnn(CC34CC5CC(CC(C5)C3)C4)c2)s1 [Example 884] | 0.968 nM |
| O=C(NCc1ccn2ccnc2c1)c1ccc(-c2cnn(Cc3ccccc3)c2)s1 [Example 885, 5-(1-benzyl-1H-pyrazol-4-yl)-N-(imidazo[1,2-a]pyridin-7-ylmethyl)thiophene-2-carboxamide] | 5.33 nM |
| O=C(NCc1ccn2ccnc2c1)c1ccc(-c2cnn(CC34CC5CC(CC(C5)O3)C4)c2)s1 [Example 886] | 0.194 nM |
| O=C(NCc1ccn2ccnc2c1)c1ccc(C2CCN(C(=O)c3cc(F)ccc3F)CC2)s1 [Example 887, 5-[1-(2,5-difluorobenzoyl)piperidin-4-yl]-N-(imidazo[1,2-a]pyridin-7-ylmethyl)thiophene-2-carboxamide] | 0.214 nM |
| O=C(NCc1ccn2ccnc2c1)c1ccc(C2CCN(C(=O)c3ccc(F)cc3F)CC2)s1 [Example 888, 5-[1-(2,4-difluorobenzoyl)piperidin-4-yl]-N-(imidazo[1,2-a]pyridin-7-ylmethyl)thiophene-2-carboxamide] | 0.494 nM |
| O=C(NCc1ccn2ccnc2c1)c1ccc(-c2cnn(CCN3CCNCC3)c2)o1 [Example 889, N-(imidazo[1,2-a]pyridin-7-ylmethyl)-5-{1-[2-(piperazin-1-yl)ethyl]-1H-pyrazol-4-yl}furan-2-carboxamide] | 651 nM |
| O=C(Cc1cc(F)ccc1F)Nc1ccc(C(=O)NCc2ccn3ccnc3c2)cc1 [Example 890, 4-{[(2,5-difluorophenyl)acetyl]amino}-N-(imidazo[1,2-a]pyridin-7-ylmethyl)benzamide] | 31.8 nM |
| O=C(Cc1ccc(F)cc1F)Nc1ccc(C(=O)NCc2ccn3ccnc3c2)cc1 [Example 891, 4-{[(2,4-difluorophenyl)acetyl]amino}-N-(imidazo[1,2-a]pyridin-7-ylmethyl)benzamide] | 87.2 nM |
| Cn1nc(C2CC2)cc1-c1ccc(C(=O)NCc2ccn3ccnc3c2)s1 [Example 892, 5-(3-cyclopropyl-1-methyl-1H-pyrazol-5-yl)-N-(imidazo[1,2-a]pyridin-7-ylmethyl)thiophene-2-carboxamide] | 6.76 nM |
| COCCn1nc(C2CC2)cc1-c1ccc(C(=O)NCc2ccn3ccnc3c2)s1 [Example 893, 5-[3-cyclopropyl-1-(2-methoxyethyl)-1H-pyrazol-5-yl]-N-(imidazo[1,2-a]pyridin-7-ylmethyl)thiophene-2-carboxamide] | 0.662 nM |
| O=C(NCc1cn2ccnc2cn1)c1ccc(-c2cnn(CCN3CCNCC3)c2)s1 [Example 894, N-(imidazo[1,2-a]pyrazin-6-ylmethyl)-5-{1-[2-(piperazin-1-yl)ethyl]-1H-pyrazol-4-yl}thiophene-2-carboxamide] | 202 nM |
| O=C(NCc1ccn2ccnc2c1)c1ccc(NC(=O)C(F)(F)c2ccccc2)cc1 [Example 895, 4-{[difluoro(phenyl)acetyl]amino}-N-(imidazo[1,2-a]pyridin-7-ylmethyl)benzamide] | 730 nM |
| CC(C)(C(=O)Nc1ccc(C(=O)NCc2ccn3ccnc3c2)cc1)c1ccccc1 [Example 896, N-(imidazo[1,2-a]pyridin-7-ylmethyl)-4-[(2-methyl-2-phenylpropanoyl)amino]benzamide] | 1580 nM |
| O=C(NCc1cn2ccnc2cn1)c1ccc(S(=O)(=O)c2ccccc2)cc1 [Example 897, N-(imidazo[1,2-a]pyrazin-6-ylmethyl)-4-(phenylsulfonyl)benzamide] | 716 nM |
| O=C(NCc1ccc2nccn2c1)c1ccc(S(=O)(=O)c2ccccc2)cc1 [Example 898, N-(imidazo[1,2-a]pyridin-6-ylmethyl)-4-(phenylsulfonyl)benzamide] | 223 nM |
